Data published in patent US12384789B2, “Compounds for treating Huntington's disease” (PTC Therapeutics, Inc., priority 2017, dated 2025).
pIC50: −log10 of the molar value.

System: Endogenous Huntingtin Protein
Experiment: Endogenous Huntingtin Protein Assay (Meso Scale Discovery ELISA-based electrochemiluminescence)
Type: cell-based
Conditions: MSD electrochemiluminescence, Table 1
Method in brief: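 MSD electrochemiluminescence sandwich ELISA: MW1 (expanded polyQ) or MAB2166 capture antibody at 1 μg/mL, samples incubated overnight at 4° C. Detection with rabbit monoclonal #5656S then SULFO-TAG anti-rabbit antibody, each 0.25 μg/mL for 1 h at room temperature.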

| pIC50 | SMILES |
| --- | --- |
| ≥ 7.00 | Cc1cc2oc(-c3cc(F)c4cc(C5CCNCC5)nnc4c3)nc2c(C)n1 [Compound 137, 7-(4,6-dimethyl[1,3]oxazolo[4,5-c]pyridin-2-yl)-5-fluoro-3-(piperidin-4-yl)cinnoline] |
| ≥ 7.00 | Cc1nc2c(C)cc(-c3cc(F)c4nc(C5CCNCC5)nnc4c3)cc2o1 [Compound 62, 7-(2,4-dimethyl-1,3-benzoxazol-6-yl)-5-fluoro-3-(piperidin-4-yl)-1,2,4-benzotriazine] |
| ≥ 7.00 | Cc1cc(-c2cc(F)c3nc(C4CCNCC4)nnc3c2)nc2cn(C)nc12 [Compound 66, 7-(2,7-dimethyl-2H-pyrazolo[4,3-b]pyridin-5-yl)-5-fluoro-3-(piperidin-4-yl)-1,2,4-benzotriazine] |
| ≥ 7.00 | Cc1cn2nc(-c3cc(F)c4cc(C5CCNCC5)nnc4c3)cc(C)c2n1 [Compound 74, 7-(2,8-dimethylimidazo[1,2-b]pyridazin-6-yl)-5-fluoro-3-(piperidin-4-yl)cinnoline] |
| ≥ 7.00 | Cc1cn2nc(-c3cc(F)c4cc(N5CCC6(CC5)CNC6)nnc4c3)cc(C)c2n1 [Compound 219, 3-(2,7-diazaspiro[3.5]nonan-7-yl)-7-(2,8-dimethylimidazo[1,2-b]pyridazin-6-yl)-5-fluorocinnoline] |
| ≥ 7.00 | CCc1cc(-c2cc(F)c3cc(C4CCN(CC)CC4)nnc3c2)nn2cc(C)nc12 [Compound 121, 7-(8-ethyl-2-methylimidazo[1,2-b]pyridazin-6-yl)-3-(1-ethylpiperidin-4-yl)-5-fluorocinnoline] |
| ≥ 7.00 | Cc1cn2nc(-c3cc(F)c4cc(N5C[C@@H]6C[C@H]5CN6C)nnc4c3)cc(C)c2n1 [Compound 215, 7-(2,8-dimethylimidazo[1,2-b]pyridazin-6-yl)-5-fluoro-3-[(1S,4S)-5-methyl-2,5-diazabicyclo[2.2.1]heptan-2-yl]cinnoline] |
| ≥ 7.00 | COc1cc(-c2nnc3cc(C4CCNCC4)ccc3n2)cc2cn(C)nc12 [Compound 52, 3-(7-methoxy-2-methyl-2H-indazol-5-yl)-7-(piperidin-4-yl)-1,2,4-benzotriazine] |
| 5.52 to 6.00 | Cn1cc2cc(-c3ccc4cc(C5CCNCC5)ccc4n3)ccc2n1 [Compound 1, 2-(2-methyl-2H-indazol-5-yl)-6-(piperidin-4-yl)quinoline] |
| ≥ 7.00 | Cc1cn2nc(-c3cc(F)c4cc(C5CCNCC5)nnc4c3)cc(CCO)c2n1 [Compound 207, 2-{6-[5-fluoro-3-(piperidin-4-yl)cinnolin-7-yl]-2-methylimidazo[1,2-b]pyridazin-8-yl}ethan-1-ol] |
| ≥ 7.00 | CCc1cc(-c2cc(F)c3cc(C4CCN(CCO)CC4)nnc3c2)nn2cc(C)nc12 [Compound 123, 2-{4-[7-(8-ethyl-2-methylimidazo[1,2-b]pyridazin-6-yl)-5-fluorocinnolin-3-yl]piperidin-1-yl}ethan-1-ol] |
| ≥ 7.00 | Cc1cn2nc(-c3cc(F)c4cc(C5CCN(CCF)CC5)nnc4c3)cc(C)c2n1 [Compound 83, 7-(2,8-dimethylimidazo[1,2-b]pyridazin-6-yl)-5-fluoro-3-[1-(2-fluoroethyl)piperidin-4-yl]cinnoline] |
| ≥ 7.00 | Cc1nc2c(C)cc(-c3cc(F)c4cc(C5CCNCC5)nnc4c3)nc2[nH]1 [Compound 126, 7-(2,7-dimethyl-3H-imidazo[4,5-b]pyridin-5-yl)-5-fluoro-3-(piperidin-4-yl)cinnoline] |

| SMILES | pIC50 |
| --- | --- |
| Cc1cc(-c2cc(F)c3cc(C4=CCNCC4)nnc3c2)cc2cn(C)nc12 [Compound 55, 7-(2,7-dimethyl-2H-indazol-5-yl)-5-fluoro-3-(1,2,3,6-tetrahydropyridin-4-yl)cinnoline] | ≥ 7.00 |
| Cc1cc(-c2ccc3nc(N(C)C4CC(C)(C)NC(C)(C)C4)ccc3c2)cc2cn(C)nc12 [Compound 11, 6-(2,7-dimethyl-2H-indazol-5-yl)-N-methyl-N-(2,2,6,6-tetramethylpiperidin-4-yl)quinolin-2-amine] | 5.52 to 6.00 |
| Cn1cc2cc(-c3ncc4cc(C5=CCNCC5)cc(F)c4n3)cc(F)c2n1 [Compound 165, 8-fluoro-2-(7-fluoro-2-methyl-2H-indazol-5-yl)-6-(1,2,3,6-tetrahydropyridin-4-yl)quinazoline] | ≥ 7.00 |
| Cc1cn2cc(-c3cc4c(F)cc(C5=CCNCC5)cc4nn3)cc(C)c2n1 [Compound 156, 3-(2,8-dimethylimidazo[1,2-a]pyridin-6-yl)-5-fluoro-7-(1,2,3,6-tetrahydropyridin-4-yl)cinnoline] | ≥ 7.00 |
